Laboratory results as given in patent publication US10301284B2, “Therapeutic inhibitory compounds” (LifeSci Pharmaceuticals, Inc., priority 2016, dated 2019).
Read-outs that look alike come from different tables or passages of the source.

Experiments:
[1] = Pharmacokinetic evaluation, oral exposure in rats; assay type: in vivo; settings: male Sprague-Dawley rats, single oral dose 10 mg/kg via oral gavage, plasma
Procedure: Pharmacokinetic studies of select compounds were performed to assess the pharmacokinetic properties. Male Sprague-Dawley rats were administered a single oral dose of the test compound at 10 mg/kg (dose concentration: 2 mg/mL, dose volume: 5 ml/kg) via oral gavage. Blood samples were collected via jugular vein at pre-dose, post-dose 5 min, 15 min, 30 min, 1 h, 2 h, 4 h, 6 h, 8 h, 10 h and 24 h, and centrifuged (8000 rpm for 6 minutes at 2-8° C.). The resulting plasma fractions were analyzed by LC/MS/MS to determine the concentration of the test compound.

human Plasma Kallikrein [2] = molecular target: T1, human Plasma Kallikrein (Homo sapiens (Human), UniProt P03952); experiment: In vitro enzyme inhibition of human plasma kallikrein (Pro-Phe-Arg-AMC cleavage); assay type: biochemical; settings: human plasma kallikrein, PFR-AMC substrate, 37° C.; read-out: hPK IC50
Outline: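 Human plasma kallikrein preincubated 5 min at 37 °C with compound in 50 mM Tris-HCl pH 7.5, 150 mM NaCl, 0.01% Triton X-100. Reaction started with Pro-Phe-Arg-AMC, fluorescence read every 43 s for 1 h at 37 °C. IC50 from highest mean velocity over 20 reads (~15 min).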

human Plasma Kallikrein [3] = molecular target: T1, human Plasma Kallikrein; experiment: Human whole blood kallikrein inhibition (ellagic acid-activated human plasma, Z-FR-2-AMC substrate); assay type: biochemical
Procedure: The ability of the compounds disclosed herein to inhibit human plasma kallikrein activity was quantified according to the procedures below.
All dilutions were prepared in an assay buffer comprising 50 mM Tris-HCl pH 7.2, 150 mM NaCl, and 0.01% Triton X-100.
Human plasma was thawed on ice and centrifuged for 15 min at 4° C. to remove platelets. A 1 mM stock solution of ellagic acid was diluted to 8 μM and mixed with human plasma, after removing platelets, at a ratio of 1:0.8. The mixture of human plasma and ellagic acid was further diluted 32-fold in the assay buffer, to yield the final mixture for use in the inhibition assay.
A 22.5 μL volume of the final mixture of human plasma and ellagic acid was added to a 96-well microwell plate and the plate was incubated for 15 min at 37° C.
The test compound solution was prepared to provide final concentrations of 20 μM, 5 μM, 1.25 μM, 312.5 nM, 78.125 nM, 19.531 nM, 4.883 nM, 1.221 nM, 0.305 nM, and 0.076 nM. Each test compound concentration was tested in duplicates.
In addition to the inhibitor control and test wells, the 96 well assay plate included positive control wells which contain the mixture of human plasma and ellagic acid without test compounds, and background wells which contain neither the mixture of human plasma and ellagic acid nor the test compounds. The total volume of liquid in positive control and background wells was brought up to 35 μL using the assay buffer.
The assay plate containing test compounds mixed with human plasma and ellagic acid and appropriate controls was incubated at 37° C. for 5 min. A 10 mM stock solution of substrate Z-FR-2-AMC was diluted to 133.2 μM in the assay buffer, and 15 μL of the diluted substrate was added to each well, to yield a final substrate concentration of 40 μM in each well. The reagents were mixed by shaking the plate gently for 30 sec.
The enzyme reaction was quantified by immediate kinetic reading of the assay plate using excitation/emission wavelengths of 330 nm/440 nm respectively. Fluorescence intensity was recorded for 60 min, using a time interval of 43 sec.
The inhibition activity of the test compounds were evaluated using the IC50 values, calculated according to the dose-response curve of the test compounds, fitted using the “log(inhibitor)−response(variable slope)” equation in GraphPadPrism software (GraphPad Software, Inc.).
The percentage inhibition (EC50) was calculated using the following equation:
[formula] where, Mean(BG) is the average value of the fluorescence intensity of the background wells and Mean(PC) is the average value of the fluorescence intensity of the positive control wells.

[4] = human plasma activated with ellagic acid, Z-FR-2-AMC 40 μM, 37° C., read-out: HWB EC50

T1 sequence (P03952 391-638 limits assumed): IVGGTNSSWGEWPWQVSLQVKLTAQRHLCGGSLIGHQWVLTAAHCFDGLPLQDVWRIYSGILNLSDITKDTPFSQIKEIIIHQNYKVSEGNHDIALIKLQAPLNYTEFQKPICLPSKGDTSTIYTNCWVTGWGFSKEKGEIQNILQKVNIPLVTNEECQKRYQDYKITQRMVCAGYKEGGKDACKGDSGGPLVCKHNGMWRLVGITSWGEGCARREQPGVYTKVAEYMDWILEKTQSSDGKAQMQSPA
T1 sequence (P03952 20-390 partner limits assumed): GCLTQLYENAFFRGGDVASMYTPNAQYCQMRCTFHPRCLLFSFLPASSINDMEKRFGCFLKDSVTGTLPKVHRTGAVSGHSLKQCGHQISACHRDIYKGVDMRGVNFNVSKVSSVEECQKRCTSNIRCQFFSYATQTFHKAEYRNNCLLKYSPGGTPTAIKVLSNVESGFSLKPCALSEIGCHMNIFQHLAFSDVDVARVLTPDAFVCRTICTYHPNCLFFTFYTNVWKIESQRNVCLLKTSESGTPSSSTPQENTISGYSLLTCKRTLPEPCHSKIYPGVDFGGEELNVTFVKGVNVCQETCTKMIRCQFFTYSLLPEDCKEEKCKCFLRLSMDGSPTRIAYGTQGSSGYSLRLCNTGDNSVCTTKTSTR

Cc1cc(N)nc(C)c1CNC(=O)c1nn(Cc2ccc3ncc(Cl)cc3c2)cc1C(F)(F)F [Example 22, N-((6-amino-2,4-dimethylpyridin-3-yl)methyl)-1-((3-chloroquinolin-6-yl)methyl)-4-(trifluoromethyl)-1H-pyrazole-3-carboxamide]
AUC ([1]; rat, read-out: AUC): 100 to 1000 ng·h/mL | IC50 (human Plasma Kallikrein [2]): < 100 nM | EC50 (human Plasma Kallikrein [3]; [4]): < 100 nM

Cc1cc(N)nc(C)c1CNC(=O)c1cn(Cc2ccc3ncc(Cl)cc3c2)nc1CN [Example 27, N-((6-amino-2,4-dimethylpyridin-3-yl)methyl)-3-(aminomethyl)-1-((3-chloroquinolin-6-yl)methyl)-1H-pyrazole-4-carboxamide]
AUC ([1]; rat, read-out: AUC): < 100 ng·h/mL | IC50 (human Plasma Kallikrein [2]): < 100 nM | EC50 (human Plasma Kallikrein [3]; [4]): < 100 nM

Cc1cc(N)nc(C)c1CNC(=O)c1cn(Cc2ccc3ncc(Cl)cc3c2)c(N)n1 [Example 28, 2-amino-N-((6-amino-2,4-dimethylpyridin-3-yl)methyl)-1-((3-chloroquinolin-6-yl)methyl)-1H-imidazole-4-carboxamide]
AUC ([1]; rat, read-out: AUC): < 100 ng·h/mL | IC50 (human Plasma Kallikrein [2]): < 100 nM | EC50 (human Plasma Kallikrein [3]; [4]): < 100 nM

Cc1cc(N)nc(C)c1CNC(=O)c1coc(Cc2ccc3ncc(Cl)cc3c2)n1 [Example 29, N-((6-amino-2,4-dimethylpyridin-3-yl)methyl)-2-((3-chloroquinolin-6-yl)methyl)oxazole-4-carboxamide]
AUC ([1]; rat, read-out: AUC): 1000 to 10000 ng·h/mL | IC50 (human Plasma Kallikrein [2]): < 100 nM | EC50 (human Plasma Kallikrein [3]; [4]): < 100 nM

Cc1cc(N)nc(C)c1CNC(=O)c1nnc(Cc2ccc3ncc(Cl)cc3c2)o1 [Example 30, N-((6-amino-2,4-dimethylpyridin-3-yl)methyl)-5-((3-chloroquinolin-6-yl)methyl)-1,3,4-oxadiazole-2-carboxamide]
AUC ([1]; rat, read-out: AUC): 1000 to 10000 ng·h/mL | IC50 (human Plasma Kallikrein [2]): < 100 nM | EC50 (human Plasma Kallikrein [3]; [4]): < 100 nM

Cc1cc(N)nc(C)c1CNC(=O)c1ncc(Cc2ccc3ncc(Cl)cc3c2)o1 [Example 31, N-((6-amino-2,4-dimethylpyridin-3-yl)methyl)-5-((3-chloroquinolin-6-yl)methyl)oxazole-2-carboxamide]
AUC ([1]; rat, read-out: AUC): 1000 to 10000 ng·h/mL | IC50 (human Plasma Kallikrein [2]): < 100 nM | EC50 (human Plasma Kallikrein [3]; [4]): < 100 nM

Cc1cc(N)nc(C)c1CNC(=O)c1cn(Cc2ccc3ncc(Cl)cc3c2)c2ncncc12 [Example 32, N-((6-amino-2,4-dimethylpyridin-3-yl)methyl)-7-((3-chloroquinolin-6-yl)methyl)-7H-pyrrolo[2,3-d]pyrimidine-5-carboxamide]
AUC ([1]; rat, read-out: AUC): < 100 ng·h/mL | IC50 (human Plasma Kallikrein [2]): < 100 nM | EC50 (human Plasma Kallikrein [3]): < 100 nM

Cc1cc(N)nc(C)c1CNC(=O)c1cn(Cc2ccc3ncc(Cl)cc3c2)c2ccncc12 [Example 35, N-((6-amino-2,4-dimethylpyridin-3-yl)methyl)-1-((3-chloroquinolin-6-yl)methyl)-1H-pyrrolo[3,2-c]pyridine-3-carboxamide]
AUC [1]: BLQ | IC50 (human Plasma Kallikrein [2]): < 100 nM | EC50 (human Plasma Kallikrein [3]): < 100 nM

Cc1cc(N)nc(C)c1CNC(=O)c1nn(Cc2ccc3ncc(Cl)cc3c2)cc1C#N [Example 36, N-((6-amino-2,4-dimethylpyridin-3-yl)methyl)-1-((3-chloroquinolin-6-yl)methyl)-4-cyano-1H-pyrazole-3-carboxamide]
AUC ([1]; rat, read-out: AUC): 100 to 1000 ng·h/mL | IC50 (human Plasma Kallikrein [2]): < 100 nM | EC50 (human Plasma Kallikrein [3]; [4]): < 100 nM

Cc1cc(N)nc(C)c1CNC(=O)c1oc(Cc2ccc3ncc(Cl)cc3c2)nc1C(F)(F)F [Example 37, N-((6-amino-2,4-dimethylpyridin-3-yl)methyl)-2-((3-chloroquinolin-6-yl)methyl)-4-(trifluoromethyl)oxazole-5-carboxamide]
AUC ([1]; rat, read-out: AUC): 100 to 1000 ng·h/mL | IC50 (human Plasma Kallikrein [2]): < 100 nM | EC50 (human Plasma Kallikrein [3]; [4]): < 100 nM

Cc1cc(N)nc(C)c1CNC(=O)c1cn(Cc2ccc3ncc(Cl)cc3c2)nc1C [Example 38, N-((6-amino-2,4-dimethylpyridin-3-yl)methyl)-1-((3-chloroquinolin-6-yl)methyl)-3-methyl-1H-pyrazole-4-carboxamide]
AUC ([1]; rat, read-out: AUC): 1000 to 10000 ng·h/mL | IC50 (human Plasma Kallikrein [2]): < 100 nM | EC50 (human Plasma Kallikrein [3]; [4]): < 100 nM
